In patent US11466028B2, “Fused 1,4-oxazepines as BET protein degraders” (THE REGENTS OF THE UNIVERSITY OF MICHIGAN, priority 2016, dated 2022):

Experiments:
MDA-MB-231 = assay: WST-8 cell growth inhibition assay, MDA-MB-231; format: cell-based; settings: Homo sapiens, WST-8, Table 6
Description: (§1) Cpd. Nos. 7 and 18 were tested in various triple-negative breast cancer cell lines using the WST-8 cell growth assay.

HL60 = assay: CellTiter-Glo cell viability, HL60 leukemia cell line; format: cell-based; settings: Homo sapiens, HL-60, Table 5
Description: (§2) Cell growth inhibitory activity of representative Compounds of the Disclosure was determined using the CellTiter-Glo® Luminescent Cell Viability Assay. Cells were seeded in 384-well white opaque cell culture plates at a density of 2,000 cells/well with serially diluted compounds and incubated at 37° C. in an atmosphere of 95% air and 5% CO2 for 4 days. Cell viability was determined using the CellTiter-Glo® Luminescent Cell Viability Assay Kit (Promega, Madison, Wis.) according to the manufacture's instruction. Briefly, a volume of CellTiter-Glo® Reagent equal to the volume of cell culture medium was added to each well, and then the plates were incubated at room temperature for 10-20 minutes. The luminescent signal was measured using a Tecan Infinite M1000 multimode microplate reader (Tecan, Morrisville, N.C.). The half maximal inhibitory concentration (IC50) was calculated using the GraphPad Prism 5 software (GraphPad Software, La Jolla, Calif.).
(§3) Cpd. Nos. 18 and 19 were tested in various leukemia cell lines using the CellTiter-Glo® Luminescent Cell Viability Assay as described in Example 35.

WHIM24 breast cancer PDX = WHIM24 breast cancer PDX model; format: in vivo; settings: FIG. 5
Description: Representative Compounds of the Disclosure were tested in the RS4;11 and other xenograph models using similar techniques. […] No. 22 in the MDA-MB-231 TNBC model.

MOLM16 = assay: CellTiter-Glo cell viability, MOLM16 leukemia cell line; format: cell-based; settings: Table 5
Description: as §2, §3

BRD4 [1] = target: T1, BRD4 (Homo sapiens, UniProt O60885); assay: Western blot, degradation of BRD4 in MOLM-13 cells; format: cell-based; settings: 3 h, as compared to Compound A, FIG. 2
T1 construct: Collected cells were lysed in lysis buffer; endogenous in cells; host or cells: RS4;11 and MOLM-13 leukemia cells
Description: (§4) Cells were treated with compounds at the indicated concentrations for 2.5 h and 3 h, respectively, for RS4;11 (see FIG. 1) and MOLM-13 (see FIG. 2) cells. Compound A is ((S)-3-benzyl-6,9-dimethyl-2-((1-methyl-1H-pyrazol-4-yl)ethynyl)-4H,6H-thieno[2,3-e][1,2,4]triazolo[3,4-c][1,4]oxazepine). See Cpd. No. 85 of U.S. Appl. No. 62/295,271.
(§5) Collected cells were lysed in lysis buffer [1% CHAPS, 150 mM NaCl, 20 mM Tris-HCl, 1 mM. EDTA, 1 mM EGTA, and COMPLETE proteinase inhibitor (Roche)] for 30 minutes on ice. Protein concentrations were determined using the Bio-Rad Protein Assay Dye reagent. Whole tumor lysates (20 μg) were separated on a 4-20% Novex gels (Invitrogen). The separated proteins were transferred to a PVDF membrane (BIO-RAD) and the PVDF membrane was then blotted with 5% Blotting-Grade Blocker (BIO-RAD) for 1 hour at room temperature. The primary antibodies used were BRD4 rabbit polyclonal antibody [Bethyl Laboratories, Inc, cat #A301] and BRD2 antibody.
(§6) The BIO-RAD Clarity Western ECL Substrates (BIO-RAD) and HyBlot CL film (Denville) were used for signal development and detection using a SRX-101A tabletop processor (Konica Minolta).

MonoMac6 = assay: CellTiter-Glo cell viability, MonoMac6 leukemia cell line; format: cell-based; settings: Homo sapiens, MONO-MAC-6, Table 5
Description: as §2, §3

KG1 = assay: CellTiter-Glo cell viability, KG1 leukemia cell line; format: cell-based; settings: Homo sapiens, KG-1, Table 5
Description: as §2, §3

AML3 = assay: CellTiter-Glo cell viability, AML3 leukemia cell line; format: cell-based; settings: Table 5
Description: as §2, §3

BRD2 = target: T2, BRD2 (Homo sapiens, UniProt P25440); assay: Western blot, degradation of BRD2 in MOLM-13 cells; format: cell-based; settings: 3 h, as compared to Compound A, FIG. 2
T2 construct: endogenous in cells; host or cells: RS4;11 and MOLM-13 leukemia cells
Description: as §4, §5, §6

MDA-MB-436 = assay: WST-8 cell growth inhibition assay, MDA-MB-436; format: cell-based; settings: Homo sapiens, WST-8, Table 6
Description: as §1

BRD4 [2] = target: T1, BRD4; assay: Western blot, degradation of BRD4 in RS4;11 cells; format: cell-based; settings: 2.5 h, as compared to Compound A, FIG. 1
Description: as §4, §5, §6

T2 sequence (P25440 whole entry): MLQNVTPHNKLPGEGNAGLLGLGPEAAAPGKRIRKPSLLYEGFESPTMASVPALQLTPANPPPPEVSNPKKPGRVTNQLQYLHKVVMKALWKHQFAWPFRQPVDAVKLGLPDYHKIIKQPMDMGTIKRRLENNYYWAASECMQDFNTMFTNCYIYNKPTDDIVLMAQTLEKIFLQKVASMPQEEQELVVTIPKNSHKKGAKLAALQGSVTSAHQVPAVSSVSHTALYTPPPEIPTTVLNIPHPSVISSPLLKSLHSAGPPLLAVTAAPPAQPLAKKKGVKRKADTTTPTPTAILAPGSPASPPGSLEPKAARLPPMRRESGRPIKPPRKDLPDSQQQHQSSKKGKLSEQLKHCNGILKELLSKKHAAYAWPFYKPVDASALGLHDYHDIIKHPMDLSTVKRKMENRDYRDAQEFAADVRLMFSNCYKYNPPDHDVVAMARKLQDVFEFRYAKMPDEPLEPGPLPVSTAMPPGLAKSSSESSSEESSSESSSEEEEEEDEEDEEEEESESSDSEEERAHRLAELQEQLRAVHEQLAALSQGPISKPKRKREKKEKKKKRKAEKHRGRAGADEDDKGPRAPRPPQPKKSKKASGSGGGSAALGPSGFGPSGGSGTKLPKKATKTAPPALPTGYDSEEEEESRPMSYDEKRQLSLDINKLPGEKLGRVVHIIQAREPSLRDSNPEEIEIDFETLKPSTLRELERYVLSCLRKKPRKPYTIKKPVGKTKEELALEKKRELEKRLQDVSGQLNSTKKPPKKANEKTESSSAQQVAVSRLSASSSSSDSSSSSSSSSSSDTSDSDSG

Compound: Cc1nnc2n1-c1sc(C#Cc3cnn(CCCC#Cc4cccc5c4CN(C4CCC(=O)NC4=O)C5=O)c3)c(Cc3ccccc3)c1CO[C@H]2C (stereo partly drawn) [Cpd. No. 18, 3-(4-(5-(4-(((S)-3-benzyl-6,9-dimethyl-4H,6H-thieno[2,3-e][1,2,4]triazolo[3,4-c][1,4]oxazepin-2-yl)ethynyl)-1H-pyrazol-1-yl)pent-1-yn-1-yl)-1-oxoisoindolin-2-yl) piperidine-2,6-dione]
- IC50 (MDA-MB-231): 0.76 ± 0.08 nM
- IC50 (HL60): 0.003 ± 0.001 nM
- tumor regression in the WHIM24 breast cancer PDX model (WHIM24 breast cancer PDX): induces tumor regression
- IC50 (MOLM16): < 0.01 nM
- degradation of BRD4 protein (Western blot) (BRD4 [1]): induce degradation
- IC50 (MonoMac6): 0.014 ± 0.004 nM
- IC50 (KG1): 0.047 ± 0.02 nM
- IC50 (AML3): 0.03 ± 0.006 nM
- degradation of BRD2 protein (Western blot) (BRD2): induce degradation
- IC50 (MDA-MB-436): 1.52 ± 0.21 nM
- degradation of BRD4 protein (Western blot) (BRD4 [2]): induce degradation
